Test results reported in US8158168B2, “Anti-gastritis and anti-ulcer agent containing Momordicae semen extract and momordica saponin I isolated from the same” (SK Chemicals Co., Ltd., priority 2005, dated 2012).

Tests used:
[1] = test system: damage of gastric mucosa induced by alcohol; experiment: Protective effect against stomach damage induced by alcohol (momordica saponin I, Example 2); assay type: in vivo, Sprague-Dawley rats; details: rat, momordica saponin I 20 mg/kg, Mucosta 100 mg/kg, 30 minutes before 1.5 mL 100% ethanol oral, observed 3 hours later; for gastric mucosa damage index ± standard deviation: Bleeding / gastric mucosa damage index ± standard deviation: Edema / gastric mucosa damage index ± standard deviation: Erosion / gastric mucosa damage index ± standard deviation: Flare / gastric mucosa damage index ± standard deviation: Hyperemia: points 0 to 3
Procedure: A rat model test was performed using 100% ethanol as stomach damage inducing factor to evaluate the protective effect of momordica saponin I for gastric mucosa. The momordica saponin I isolated in Preparative Example 5 was dissolved in 0.5% aqueous carboxymethyl cellulose solution to 2 mg/mL and was used as a test drug. Mucosta (rebamipide, Korea Otsuka Pharmaceuticals) dissolved in 0.5% aqueous carboxymethyl cellulose solution to 10 mg/mL was used as control drug.
(§1) Seven-week-old specific pathogen free (SPF) male Sprague-Dawley rats were purchased from Charles River. After 1 week of adaptation, healthy rats with a weight of 220-225 g were selected for the test. Five rats per each group were fasted for 18 hours with drinking water freely available. Momordica saponin I were administered at a dosage of 20 mg/kg and the control drug Mucosta were administered at a dosage of 100 mg/kg. After 30 minutes, 1.5 mL of 100% ethanol was orally administered. 3 hours later, the rats were anesthetized with ether and the stomach was taken out in order to evaluate the drug's effect of preventing the stomach damage. […] The damage of the stomach was classified into flare, congestion, hemorrhage, inflammation and edema. The severity of the damage was evaluated with points ranging from 0 to 3 (the higher the point, the severer the damage.).

[2] = test system: secretion of gastric acid; experiment: Gastric acid secretion inhibition test in rats (Example 6); assay type: in vivo, Sprague-Dawley rats; details: 1 hour later, gastric juice diluted 10 times with distilled water
Procedure: Momordica saponin I was orally administered to Sprague-Dawley rats and the acidity in the stomach was measured in order to evaluate the effect of momordica saponin I on the secretion of gastric acid. The momordica saponin I isolated in Preparative Example 4 was dissolved in 0.5% aqueous carboxymethyl cellulose solution to concentrations of 0.5, 1.5 and 4.5 mg/mL. 7-week-old specific pathogen free (SPF) male Sprague-Dawley rats were purchased from Charles River. After 1 week of adaptation, healthy rats with a weight of 220-225 g were selected for the test. Two rats per each group were fasted for 18 hours with drinking water freely available and momordica saponin I were administered at dosages of 5, 15 and 45 mg/kg. 1 hour later, the rats were anesthetized with ether. 0.5 mL of the gastric juice taken from the stomach was diluted 10 times with distilled water to obtain a 5 mL sample. The pH of the diluted gastric juice was measured with a pH meter.

Sprague-Dawley rats = experiment: Acute toxicity test for oral administration of momordica saponin I in rats (Example 8); assay type: in vivo; details: rat
Procedure: Acute toxicity test was performed as follows using 6-week-old specific pathogen free (SPF) Sprague-Dawley rats
To two rats per each group, the momordica saponin I isolated in Preparative Example 5 was orally administered once at a dosage of 400 mg/kg. Survival, clinical manifestations and body weight change were observed and hematological and serum biochemical analysis was performed. Autopsy was performed to observe abnormalities in abdominal and thoracic organs.

[3] = test system: stomach damage induced by diclofenac; experiment: Protective effect of momordica saponin I against stomach damage induced by diclofenac (Example 5); assay type: in vivo, Sprague-Dawley rats; details: rat, diclofenac 40 mg/kg oral and at the same time momordica saponin I 20 mg/kg or Mucosta 100 mg/kg oral, observed 4 hours later; for gastric mucosa damage index ± standard deviation: Bleeding / gastric mucosa damage index ± standard deviation: Edema / gastric mucosa damage index ± standard deviation: Flare / gastric mucosa damage index ± standard deviation: Hyperemia: points 0 to 3
Procedure: Diclofenac and the test drug were administered simultaneously and the damage of gastric mucosa was observed 4 hours later. Diclofenac was dissolved in 0.5% aqueous carboxymethyl cellulose solution to […] and the test drug was prepared as in Example 2.
(§2) Seven-week-old specific pathogen free (SPF) male Sprague-Dawley rats were purchased from Charles River. After 1 week of adaptation, healthy rats with a weight of 220-225 g were selected for the test. Five rats per each group were fasted for 18 hours with drinking water freely available and diclofenac was orally administered at a dosage of 40 mg/kg and, at the same time, the test drug, or momordica saponin I, was orally administered at a dosage of 20 mg/kg and the control drug Mucosta was orally administered at a dosage of 100 mg/kg. 4 hours later, the rats were anesthetized with ether and the stomach was taken out in order to evaluate the drug's effect of treating gastritis. […] The damage of the stomach was classified into flare, congestion, hemorrhage, inflammation and edema. The severity of the damage was evaluated with points ranging from 0 to 3 (The higher the point, the severer the damage).

[4] = test system: stomach damage induced by diclofenac; experiment: as above; assay type: in vivo, Sprague-Dawley rats; details: rat, diclofenac 40 mg/kg oral and at the same time momordica saponin I 20 mg/kg or Mucosta 100 mg/kg oral; observed 4 hours later; points 0 to 3
[5] = test system: stomach damage induced by diclofenac; experiment: Protective effect against stomach damage induced by diclofenac, simultaneous abdominal administration (Example 4); assay type: in vivo, Sprague-Dawley rats; details: rat, diclofenac 40 mg/kg oral and at the same time drugs 100 mg/kg abdominally, observed 6 hours later
Procedure: Differently from Example 3, diclofenac and the test drug were administered simultaneously and the damage of gastric mucosa was observed 6 hours later. In order to prevent the direct interaction between diclofenac and the test drug, the test drug was administered abdominally. Similar to that in Example 3, diclofenac and the test drug were dissolved in 0.5% aqueous carboxymethyl cellulose solution to 10 mg/mL.
as §2, with “or the Momordicae semen extract,” for “or momordica saponin I, was orally administered at a dosage of 20 mg/kg”, “control drugs Stillen and” for “control drug”, “Mucosta were abdominally” for “Mucosta was orally”, “mg/kg. 6” for “mg/kg. 4”, “to 3.” for “to 3 (The higher the point, the severer the damage).”

[6] = test system: damage of gastric mucosa induced by alcohol; experiment: Protective effect against stomach damage induced by alcohol (Momordicae semen extract, Example 1); assay type: in vivo, Sprague-Dawley rats; details: rat, drugs 100 mg/kg 1 hour before 1.5 mL 100% ethanol oral, stomach observed 6 hours later
Procedure: A rat model test was performed using 100% ethanol as stomach damage inducing factor to evaluate the protective effect of the Momordicae semen extract for gastric mucosa. The Momordicae semen extract of Preparative Example 1 was dissolved in 0.5% aqueous carboxymethyl cellulose solution to 10 mg/mL and was used as a test drug. Stillen (artemisia extract, Dong-A Pharmaceutical) and Mucosta (rebamipide, Korea Otsuka Pharmaceuticals) dissolved in 0.5% aqueous carboxymethyl cellulose solution to 10 mg/mL were used as control drugs.
as §1, with “available. The Momordicae semen extract” for “available. Momordica saponin I were administered at a dosage of 20 mg/kg”, “control drugs Stillen and” for “control drug”, “After 1 hour,” for “After 30 minutes,”, “administered. 6” for “administered. 3”, “was categorized” for “was classified”, “to 3.” for “to 3 (the higher the point, the severer the damage.).”

[7] = test system: stomach damage induced by diclofenac; experiment: Healing effect on stomach damage induced by diclofenac (Example 3); assay type: in vivo, Sprague-Dawley rats; details: rat, diclofenac 40 mg/kg oral, drugs 100 mg/kg 6 hours after, observed 18 hours later
Procedure: A rat model test was performed using diclofenac, a representative non-steroidal anti-inflammatory drug (NSAID), as stomach damage inducing factor to evaluate the effect of the Momordicae semen extract of Example 1 for treating gastritis. The Momordicae semen extract was dissolved in 0.5% aqueous carboxymethyl cellulose solution to 10 mg/mL and was used as a test drug. Stillen (artemisia extract, Dong-A Pharmaceutical) and Mucosta (rebamipide, Korea Otsuka Pharmaceuticals) dissolved in 0.5% aqueous carboxymethyl cellulose solution to 10 mg/mL were used as control drugs.
as §2, with “40 mg/kg. After 6 hours of stomach damage inducement,” for “40 mg/kg and, at”, “the Momordicae semen extract” for “the same time, the test drug, or momordica saponin I, was orally administered at a dosage of 20 mg/kg”, “control drugs Stillen and” for “control drug”, “Mucosta were” for “Mucosta was orally”, “mg/kg. 18” for “mg/kg. 4”, “to 3.” for “to 3 (The higher the point, the severer the damage).”

Row | Compound | gastric mucosa damage index ± standard deviation: Total [1] | gastric mucosa damage index ± standard deviation: Bleeding [1] | gastric mucosa damage index ± standard deviation: Edema [1] | gastric mucosa damage index ± standard deviation: Erosion [1] | gastric mucosa damage index ± standard deviation: Flare [1] | gastric mucosa damage index ± standard deviation: Hyperemia [1] | gastric mucosa damage index ± standard deviation: Total [3] | gastric mucosa damage index ± standard deviation: Bleeding [3] | gastric mucosa damage index ± standard deviation: Edema [3] | gastric mucosa damage index ± standard deviation: Flare [3] | gastric mucosa damage index ± standard deviation: Hyperemia [3] | gastric mucosa damage index ± standard deviation: Erosion [4] | also measured
1 | CC1OC(OC2C(O)C(C(=O)O)OC(OC3CCC4(C)C(CCC5(C)C4CC=C4C6CC(C)(C)CCC6(C(=O)OC6OC(C)C(O)C(O)C6OC6OC(C)C(OC7OCC(O)C(O)C7O)C(OC7OC(CO)C(O)C(OC8OCC(O)C(O)C8O)C7O)C6O)CCC45C)C3(C)C=O)C2OC2OC(CO)C(O)C(O)C2O)C(O)C(O)C1O [Momordica saponin I, 3-O-β-D-galactopyranosyl(1->2)-[α-L-rhamnopyranosyl(1->3)]-β-D-glucuronopyranosido-28-O-β-D-xylopyranosyl(1->3)-β-D-glucopyranosyl(1->3)-[β-D-xylopyranosyl(1->4)]-α-L-rhamnopyranosyl(1->2)-β-D-fucopyranosylgypsogenin] | 4.4 ± 1.1 | 0.9 ± 0.2 | 1 ± 0.3 | 0.5 ± 0.1 | 1.1 ± 0.2 | 0.9 ± 0.3 | 5.2 ± 1.2 | 0.7 ± 0.2 | 1 ± 0.2 | 1.3 ± 0.2 | 0.9 ± 0.3 | 1.3 ± 0.3 | Acidity in the stomach of rats (pH ± standard deviation) ([2]; 5 mg/kg oral): 3.3 ± 0.1 pH; Acidity in the stomach of rats (pH ± standard deviation) ([2]; 15 mg/kg oral): 4.3 ± 0.8 pH; Acidity in the stomach of rats (pH ± standard deviation) ([2]; 45 mg/kg oral): 5.2 ± 0.6 pH; clinical manifestation or death (Sprague-Dawley rats; once at a dosage of 400 mg/kg): no noticeable clinical manifestation or death; toxicity in body weight change, hematological and serum biochemical analysis and autopsy (Sprague-Dawley rats; once at a dosage of 400 mg/kg): no toxicity was found; minimum oral administration lethal dose (LD50) (Sprague-Dawley rats; single administration): ≥ 400 mg/kg
2 | O=C(NC(Cc1cc(=O)[nH]c2ccccc12)C(=O)O)c1ccc(Cl)cc1 (stereo not drawn) [Mucosta, rebamipide] | 6.1 ± 1.2 | 1.4 ± 0.2 | 1.2 ± 0.3 | 0.9 ± 0.3 | 1.2 ± 0.2 | 1.4 ± 0.2 | 8.5 ± 1.5 | 1.5 ± 0.3 | 1.2 ± 0.1 | 2.3 ± 0.3 | 1.3 ± 0.4 | 2.2 ± 0.4 | gastric mucosa damage index: Total [5]: 9.8 ± 1.2; gastric mucosa damage index: Bleeding ([5]; points 0 to 3): 1.4 ± 0.5; gastric mucosa damage index: Edema ([5]; points 0 to 3): 1.2 ± 0.2; gastric mucosa damage index: Erosion ([5]; points 0 to 3): 2.4 ± 0.4; gastric mucosa damage index: Flare ([5]; points 0 to 3): 2.6 ± 0.2; gastric mucosa damage index: Hyperemia ([5]; points 0 to 3): 2.2 ± 0.4; gastric mucosa damage index: Total [6]: 8.1 ± 0.8; gastric mucosa damage index: Bleeding ([6]; points 0 to 3): 1.5 ± 0.2; gastric mucosa damage index: Edema ([6]; points 0 to 3): 1.3 ± 0.2; gastric mucosa damage index: Erosion ([6]; points 0 to 3): 1.8 ± 0.2; gastric mucosa damage index: Flare ([6]; points 0 to 3): 1.3 ± 0.2; gastric mucosa damage index: Hyperemia ([6]; points 0 to 3): 1.3 ± 0.4; gastric mucosa damage index: Total [7]: 7.4 ± 0.7; gastric mucosa damage index: Bleeding ([7]; points 0 to 3): 1.2 ± 0.2; gastric mucosa damage index: Edema ([7]; points 0 to 3): 2.2 ± 0.2; gastric mucosa damage index: Erosion ([7]; points 0 to 3): 2.4 ± 0.2; gastric mucosa damage index: Flare ([7]; points 0 to 3): 0.8 ± 0.4; gastric mucosa damage index: Hyperemia ([7]; points 0 to 3): 0.8 ± 0.4
